# Experimental data taken from patent US5523314A, “Compounds useful as hypoglycemic agents and for treating Alzheimer's disease” (priority 1994, dated 1996).
# Where a name gives a salt, the structure may show the parent alone. Read-outs that look alike come from different tables or passages of the source.
# Columns and labels:
# blood glucose level [1] = assay: Hypoglycemic activity in normal fed rats (Table 2); type: in vivo, male Sprague Dawley rats; settings: Rattus norvegicus
# Experimental: The procedure used in this test system is described below.
# The desired dose level of each test formulation was administered to four rats by oral […] at the beginning of the experiment. Blood glucose levels were determined immediately before the first dose and at 3 and 5 hours thereafter by an enzymatic procedure employing glucose oxidase and peroxidase coupled with a chromogenic oxygen acceptor. A mean was taken of the 4 values obtained before the first dose and at the 3 and 5 hour intervals.
# blood glucose level [2] = assay: Hypoglycemic activity in obese diabetic mice (Table 1); type: in vivo, male viable yellow obese-diabetic mice; settings: for response vs control in vivo at 50 mg/kg / response vs control in vivo at 5 mg/kg / response vs control in vivo at 10 mg/kg: Mus musculus, ip; for response vs control in vivo at 50 mg/kg: intraperitoneal
# Experimental: The hypoglycemic activity of the compounds of the present invention was determined by testing the efficacy of the compounds in vivo in male viable yellow obese-diabetic mice. The test procedure is described in detail below.
# Test formulations were prepared by dissolving the test compound in a saline solution containing 2% Emulphor (a polyoxyethylated vegetable oil surfactant from GAP Corp.) to provide the dose level desired. Each test formulation was administered to six viable yellow obese-diabetic mice intraperitoneally at the beginning of the experiment. Blood glucose levels were determined immediately before the first dose and at 2 and 4 hours thereafter using glucose oxidase. A mean was taken of the 6 values obtained before the first dose and at the 2 and 4 hour intervals. In Table 1, Column 1 provides the example number of the test compound, Column 2 provides the dose level of compound tested, and Columns 3 and 4 provide a measurement of the test animal's blood glucose level 2 and 4 hours after test compound administration, respectively, as a percentage of the test animal' s pre-administration blood glucose level.
# Human liver cathepsin D = target: T1, Human liver cathepsin D (Homo sapiens, UniProt P07339); assay: Cathepsin D inhibition, fluorometric assay (Tables 5 and 6); type: biochemical; settings: for inhibition at 10 µg/mL (stock): Compound Stock Concentration 10.0 μg/ml; for inhibition at 4.15 µg/mL (stock): Compound Stock Concentration 4.15 μg/ml
# T1 construct: purchased Athens Research and Technology, Athens, Ga; host or cells: human liver
# Experimental: Human liver cathepsin D (Athens Research and Technology, Athens, Ga.) was diluted in assay buffer, 200 mM NaOAc, pH 4.5, 150 mM NaCl to 500 ng/mL and then 100 μL of this cathepsin D solution was added to each well of a 96 well plate with the exception of control wells which received just 100 μL of assay buffer. […] Blank and enzyme control wells each received 5 μL of the DMSO vehicle.
# After incubation at 37° C. for 30 minutes, cathepsin D activity was terminated by the addition of 100 μL per well of 400 mU/mL microsomal leucine aminopeptidase (EC 3.4.11.2, Sigma, St. Louis, Mo.) in 1M Tris-HCl, pH 8.0.
# Following a two hour incubation at 37° C., to allow the aminopeptidase to release the fluorophore, 7-amido-4-methylcoumarin (AMC) from the products of cathepsin D cleavage, the plates were again analyzed in the fluorometer. In order to check for potential false positives, i.e., inhibitors of microsomal leucine aminopeptidase, residual aminopeptidase activity was monitored directly in each well by the addition of 20 μL/well of 2.5 mM Leu-pNA (Bachem Biosciences, Philadelphia, Pa.) in 10% DMSO.
# [3] = 200 mg/kg, oral, 3 hrs, read-out: Percent of Initial Blood Glucose Level After 3 hrs.
# [4] = 200 mg/kg, oral, 5 hrs, read-out: Percent of Initial Blood Glucose Level After 5 hrs.
# [5] = 2 h, 2 hrs, read-out: Percent of Initial Blood Glucose Level After 2 hrs.
# [6] = 4 h, 4 hrs, read-out: Percent of Initial Blood Glucose Level After 4 hrs.
# [7] = compared to structurally similar compounds known in the art, in words
# T1 sequence (P07339 169-412 limits assumed): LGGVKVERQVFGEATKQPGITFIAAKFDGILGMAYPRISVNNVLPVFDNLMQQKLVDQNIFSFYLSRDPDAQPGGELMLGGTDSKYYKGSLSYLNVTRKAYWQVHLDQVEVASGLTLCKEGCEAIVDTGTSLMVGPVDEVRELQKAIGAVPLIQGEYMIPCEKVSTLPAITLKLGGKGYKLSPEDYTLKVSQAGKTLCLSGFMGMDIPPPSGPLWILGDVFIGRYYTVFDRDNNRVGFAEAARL
# T1 sequence (P07339 65-161 limits assumed): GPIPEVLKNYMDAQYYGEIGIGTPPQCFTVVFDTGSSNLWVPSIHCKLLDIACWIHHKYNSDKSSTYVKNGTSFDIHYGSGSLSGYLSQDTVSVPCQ
Compound,response vs control in vivo at 200 mg/kg (blood glucose level [1]; [3]),response vs control in vivo at 200 mg/kg (blood glucose level [1]; [4]),response vs control in vivo at 50 mg/kg (blood glucose level [2]; [5]),response vs control in vivo at 50 mg/kg (blood glucose level [2]; [6]),also measured
"CCCCCOc1ccc(C=C2SCNC2=O)cc1OC [Example 66, 5-[(3-methoxy-4-pentoxyphenyl)methylene]-4-thiazolidinone]",100%,86%,–,–,–
"COc1ccc(C=C2SC(=S)NC2=O)cc1 [Example 18, 5-[(4-methoxyphenyl)methylene]-2-thioxo-4-thiazolidinone]",–,–,89 ± 4%,88 ± 5%,inhibition at 10 µg/mL (stock) (Human liver cathepsin D): 38%
"O=C1NC(=S)SC1=Cc1ccc(O)cc1 [Example 8, 5-[(4-hydroxyphenyl)methylene]-2-thioxo-4-thiazolidinone]",–,–,94 ± 4%,84 ± 6%,inhibition at 10 µg/mL (stock) (Human liver cathepsin D): 64%
"CCCOc1cc(C=C2SC(=S)NC2=O)ccc1OCC [Example 50, 5-[(3-propoxy-4-ethoxyphenyl)methylene]-2-thioxo-4-thiazolidinone]",–,–,75 ± 5%,69 ± 5%,ability to lower blood glucose levels in mammals (blood glucose level [2]; [7]): surprising ability to lower blood glucose levels in mammals; inhibition at 4.15 µg/mL (stock) (Human liver cathepsin D): 40%
"CCCCCOc1ccc(C=C2SC(=S)N(C)C2=O)cc1OC [Example 65, 5-[(3-methoxy-4-pentoxyphenyl)methylene]-2-thioxo-3-methyl-4-thiazolidinone]",100%,91%,–,–,–
"CS(=O)(=O)Nc1cccc(C=C2SC(=S)NC2=O)c1 [Example 1, 5-[(3-methanesulfonamidophenyl)methylene]-2-thioxo-4-thiazolidinone]",–,–,82 ± 5%,75 ± 2%,inhibition at 10 µg/mL (stock) (Human liver cathepsin D): 36%
"CCCCCOc1ccc(CC2SCNC2=O)cc1OC (stereo not shown) [Example 67, 5-[(3-methoxy-4-pentoxyphenyl)methyl]-4-thiazolidinone]",92%,88%,–,–,–
"CCCCCOc1ccc(C=C2SC(=S)NC2=O)cc1OC [Example 57, 5-[(3-methoxy-4-pentoxyphenyl)methylene]-2-thioxo-4-thiazolidinone sodium salt]",–,–,–,–,"response vs control in vivo at 5 mg/kg (blood glucose level [2]; 2 h, read-out: Percent of Initial Blood Glucose Level After 2 hrs., 5 mg/kg, intraperitoneal, 2 hrs): 82 ± 6%; response vs control in vivo at 10 mg/kg (blood glucose level [2]; 2 h, read-out: Percent of Initial Blood Glucose Level After 2 hrs., 10 mg/kg, intraperitoneal, 2 hrs): 95 ± 3%; response vs control in vivo at 5 mg/kg (blood glucose level [2]; 4 h, read-out: Percent of Initial Blood Glucose Level After 4 hrs., 5 mg/kg, intraperitoneal, 4 hrs): 68 ± 5%; response vs control in vivo at 10 mg/kg (blood glucose level [2]; 4 h, read-out: Percent of Initial Blood Glucose Level After 4 hrs., 10 mg/kg, intraperitoneal, 4 hrs): 87 ± 6%; response vs control in vivo at 200 mg/kg (blood glucose level [1]; po, 3 h, read-out: Percent of Initial Blood Glucose Level After 3 hrs.): 84%; response vs control in vivo at 200 mg/kg (blood glucose level [1]; po, 5 h, read-out: Percent of Initial Blood Glucose Level After 5 hrs.): 73%"
"O=C1NC(=S)SC1=Cc1cc(Cl)c(O)c(Cl)c1 [Example 55, 5-[(3,5-dichloro-4-hydroxyphenyl)methylene]-2-thioxo-4-thiazolidinone]",–,–,81 ± 3%,75 ± 3%,inhibition at 4.15 µg/mL (stock) (Human liver cathepsin D): 90%; ability to inhibit cathepsin D (Human liver cathepsin D; [7]): surprising ability to inhibit cathepsin D levels
"CCCOc1ccc(C=C2SC(=S)NC2=O)cc1OCC [Example 49, 5-[(3-ethoxy-4-propoxyphenyl)methylene]-2-thioxo-4-thiazolidinone]",100%,98%,83 ± 5%,77 ± 7%,–
"COc1ccccc1C=C1SC(=S)NC1=O [Example 26, 5-[(2-methoxyphenyl)methylene]-2-thioxo-4-thiazolidinone]",100%,100%,80 ± 4%,75 ± 2%,–
